Reference: BigSolDB 2.1

CC(=O)c1c(C)c([N+](=O)[O-])c(C(C)(C)C)c([N+](=O)[O-])c1C
solubility (mole fraction)
Settings | 278.15 K | 283.15 K | 288.15 K | 293.15 K | 298.15 K | 303.15 K | 308.15 K | 313.15 K | 318.15 K
in DMF | 0.0747 | 0.0867 | 0.0998 | 0.113 | 0.128 | 0.147 | 0.167 | 0.187 | 0.211
in ethanol | 0.00197 | 0.00243 | 0.003 | 0.00367 | 0.00444 | 0.00531 | 0.00633 | 0.00753 | 0.00892
in isopropanol | 0.00161 | 0.00204 | 0.00258 | 0.00323 | 0.00408 | 0.00506 | 0.0063 | 0.00771 | 0.00933
in methanol | 0.0013 | 0.00156 | 0.00187 | 0.00224 | 0.00267 | 0.00318 | 0.00375 | 0.00442 | 0.00515
